Measured values published in patent publication US11896600B2, “Composition and method of using eicosanoyl-5-hydroxytryptamide for treating neurodegenerative disorders” (Vidya Herbs, Inc., priority 2019, dated 2024).
Structures can show the parent of a compound that is named as a salt.

System: scopolamine-induced amnesia in mice
Assay: Elevated plus maze (transfer latency) in scopolamine-induced amnesia mice
Conditions: donepezil hydrochloride 3 mg/kg p.o., 7-day pre-treatment; p<0.001
Experimental: Groups III-V mice were dosed every 24 h interval with respective drugs for 7 consecutive days. On day 7, amnesia was induced in all the groups except the control group by intraperitoneal injection of scopolamine (1 mg/kg) 30 minutes after the respective treatments. 30 minutes later, elevated plus maze (EPM) was carried out to assess the cognitive function. At the end of experiment, mice were sacrificed; serum and brain homogenates were used for further analysis.
Briefly, the acquisition trail (day 6) was carried out by placing the mouse at the end of an open arm. The time taken by the mouse to enter any of the closed arms was taken as transfer latency. Cutoff time allotted for each mouse was 180 s. Retention trail was carried out 24 h after the first trail (Day 7, 30 min after scopolamine treatment). The transfer latency was determined in a similar manner as mentioned before. Shortened transfer latency was considered as an index of memory improvement.
In this study, EPM was applied as a behavioral model to assess learning and memory.

COc1cc2c(cc1OC)C(=O)C(CC1CCN(Cc3ccccc3)CC1)C2 (stereo not shown) [donepezil, donepezil hydrochloride]
reduction of latency period (transfer latency) compared to scopolamine control group: 82.45%
